In patent US9023844B2, “Heterocyclylpyri (mi) dinylpyrazole as fungicidals” (Bayer Intellectual Property GmbH, priority 2011, dated 2015):

Legend:
[1] = test system: Botrytis cinerea; experiment: Example N: in vivo preventive test on Botrytis cinerea (grey mould); details: dose of 500 ppm; gherkin plants; grading 4-5 days after contamination
Description: The active ingredients tested are prepared by homogenization in a mixture of acetone/tween/DMSO and then diluted with water to obtain the desired active material.
Gherkin plants (“Vert petit de Paris” variety), sown in starter cups on a 50/50 peat soil-pozzolana substrate and grown at 24° C., are treated at the Z11 cotyledon stage by spraying with the active ingredient prepared as described above. Plants, used as controls, are treated with the mixture of acetone/tween/DMSO/water not containing the active material.
After 24 hours, the plants are contaminated by spraying the cotyledons with an aqueous suspension of cryopreserved Botrytis cinerea spores (50 000 spores per ml). The spores are suspended in a nutrient solution composed of 10 g/L of PDB, 50 g/L of D-Fructose, 2 g/L of NH4NO3 and 1 g/L of KH2PO4. The contaminated gherkin plants are incubated at 17° C. and at 80% relative humidity.
Grading (% of efficacy) is carried out 4-5 days after the contamination, in comparison with the control plants.

[2] = test system: Pyricularia oryzae; type: in vivo; details: in vivo
[3] = test system: Sphaerotheca fuliginea; details: in vivo
[4] = Determination of log P values by HPLC on a reverse phase column (C18), EEC-Directive 79/831 Annex V.A8 (Methods A, B, C); type: physicochemical
How it was run: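 LogP was determined by C18 reverse-phase HPLC/UPLC with acetonitrile/water eluents containing formic acid. Method A used a 10–95% acetonitrile gradient over 4.25 min at 55 °C and 2.0 mL/min. Method B used 5–95% over 1.70 min at 55 °C and 2.0 mL/min, and Method C used 10–95% over 3.25 min at 40 °C and 0.8 mL/min, with MS detection.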

[5] = test system: Puccinia recondita; details: in vivo
[6] = test system: Septoria tritici; details: in vivo
[7] = test system: DON/Acetyl-DON production by Fusarium graminearum; experiment: microbe, parasite or virus in culture; type: cell-based; details: at 50 μM
[8] = test system: Fusarium graminearum; experiment: microbe, parasite or virus in culture; type: cell-based; details: at 50 μM
[9] = test system: Phytophthora infestans; details: in vivo
[10] = test system: Uromyces appendiculatus; details: in vivo
[11] = test system: Pyrenophora teres; details: in vivo
[12] = Method B (HPLC, reverse phase C18)
[13] = Method A: HPLC, reverse phase C18, acetonitrile (0.1% formic acid)/water (0.09% formic acid) gradient

Row | SMILES | protection (% of efficacy) [1] [%] | protection (% of efficacy) [2] [%] | protection (% of efficacy) [3] [%] | LogP [4, 12] | protection (% of efficacy) [5] [%] | protection (% of efficacy) [6] [%] | Inhibition of DON/AcDON in % [7] [%] | LogP [4, 13] | Growth inhibition of Fusarium graminearum in % [8] [%] | protection (% of efficacy) [9] [%] | protection (% of efficacy) [10] [%] | protection (% of efficacy) [11] [%]
1 | C[S+]([O-])C(C)(C)C(=O)Nc1cc(-c2c(-c3ccc(F)cc3)nn3c2OCCC3)ccn1 (centres unmarked) [Example 68] | 80 | 80 | 89 | 1.69 | 81 | 93 |  |  |  |  |  | 
2 | CCC(=O)Nc1cc(-c2c(-c3ccc(F)cc3)nn3c2O[C@H](C)C[C@H]3C)ccn1 [Example 72] |  | 80 | 100 |  | 98 | 75 | 100 | 1.84 | 77 | 75 | 96 | 94
3 | O=C(Nc1cc(-c2c(-c3ccc(F)cc3)nn3c2OCCC3)ccn1)C1CC2CCC1C2 (centres unmarked) [Example 64] | 100 | 80 | 100 | 3.11 | 81 | 86 | 98 |  | 83 |  |  | 
4 | CCC(=O)Nc1cc(-c2c(-c3ccc(F)cc3)nn3c2OC(C)C3C)ccn1 (centres unmarked) [Example 75] |  | 90 | 100 |  | 88 |  | 100 | 1.67 | 88 | 95 | 100 | 98
5 | O=C(CN1CCCCC1)Nc1cc(-c2c(-c3ccc(F)cc3)nn3c2OCCC3)ccn1 [Example 66] |  | 80 | 94 | 1 | 81 | 79 |  |  |  |  |  | 
